The values below come from publication PMC9031298, “Enhanced In Vitro Antiviral Activity of Hydroxychloroquine Ionic Liquids against SARS-CoV-2” (Pharmaceutics, 2022).

Values joined by “and” are separate entries in the source; they are usually repeats but may differ in a detail not shown here. Equal values may be shown once. Where a name gives a salt, the structure may show the parent alone. Read-outs that look alike come from different tables or passages of the source.

The test system of series [1] is Vero E6 cells.
Series [2] is described as follows: Critical micelle concentration by ionic conductivity. Format: physicochemical. To be noted: 20 °C, water. On the procedure: The critical micelle concentrations of the HCQ-ILs with surfactant-like anions were calculated using ionic conductivity measurements. A Crison Basic 30+ Radiometer Analytical conductivity meter was used to measure the ionic conductivities (μS/cm) of surfactant solutions in a glass cell at 20 °C containing a magnetic stirrer. For this method, a known amount of Milli-Q water was placed in a thermostated glass cell and the surfactant solution of known concentration was progressively added using a micropipette under constant stirring. Each conductivity value was measured at least three times.
The ability to form micelles of the lipophilic HCQ-ILs [DocSO3] (5) and [C12SO4] (8) was studied by ionic conductivity measurements. The inherent ability of these HCQ-ILs to self-aggregate into micelles can render adequate drug delivery properties. […] The critical micelle concentration (cmc) values, calculated by resolving both equations, are given in Table 3, alongside the cmc values for the starting halide salts (Na[DocSO3] and [C12SO4]).

The conditions of series [3]: cited from earlier work.
For series [4], the system named is SARS-CoV-2. The series can be described thus: microbe, parasite or virus in culture. It is filed as cell-based. The conditions noted are these: for EC50 / EC90: TCID50 assay; for EC50: three experiments, read-out: EC50, inhibition of production of infectious progeny viruses; for EC90: read-out: EC90, inhibition of production of infectious progeny viruses.
Series [5] is described as follows: Cell viability assay (CellTiter-Glo), cytotoxicity. To be noted: African green monkey, Vero E6 cells (non-infected), CC50, non-infected Vero E6 cells, mean of three experiments. Background: ATP-based viability assays read luminescence as a measure of living cells.
The subject of series [6] is SARS-CoV-2. In words: microbe, parasite or virus in culture. The conditions noted are these: Severe acute respiratory syndrome coronavirus 2, Vero C1008, read-out: EC90, inhibition of virus-induced CPE, Vero E6 cells, 100 TCID50, 72 hpi.
In series [7] the test system is SARS-CoV-2. The series can be described thus: microbe, parasite or virus in culture. It is filed as cell-based. The conditions noted are these: for EC50 / EC90: qRT-PCR; for EC50: four experiments, read-out: EC50, inhibition of vRNA transcription; for EC90: read-out: EC90, inhibition of vRNA transcription; for inhibition of vRNA transcription: at 16.7 μM, 48 hpi.
Series [8] has as its system SARS-CoV-2. To be noted: for inhibition of CPE: at 10 μM, Vero E6, 72 hpi; for EC50: read-out: EC50, inhibition of virus-induced CPE; for EC90: read-out: EC90, inhibition of virus-induced CPE.
The nature of series [9]: Octanol–water partition coefficient (Kow, Log P) by UV–Vis. The conditions noted are these: logarithm of Kow, ca. 1 mg/mL, triplicate.
Series [10] concerns Vero E6 cells. The series can be described thus: Cell viability assay (CellTiter-Glo), cytotoxicity. To be noted: non-infected Vero E6 cells, 72 h, mean of three experiments.
Series [11] in a line: Water solubility by stepwise addition of water until visual dissolution. The conditions noted are these: double-distilled water, 37 °C; for solubility: water, thermodynamic from solid; for Water Solubility: visual inspection.
[12] abbreviates: Severe acute respiratory syndrome coronavirus 2, Vero C1008, Vero E6, 48 hpi.
Where [13] appears, read: Vero E6 cells, 100 TCID50, 72 hpi.

Consider `CS(=O)(=O)[O-].[K+]` [3a, potassium methanesulfonate], for which the CC50 in series [1] was greater than 400 µM.

As to `CCCCCCS(=O)(=O)O` [4a], the CC50 in series [1] is greater than 400 µM.

With `CCCCC(CC)COC(=O)CC(C(=O)OCC(CC)CCCC)S(=O)(=O)[O-].[Na+]` (centres unmarked) [5a], the cmc in series [2] turned out to be 1540 µM. Moreover, the “Reference cmc (25 °C)” value in series [3] is 5.0 × 10^−3 [71] M.

Turning to `CC1(C)C2CC[C@@]1(CS(=O)(=O)[O-])C(=O)C2.[Na+]` [6a], the CC50 in series [1] worked out at 142 µM.

`Cc1ccc(S(=O)(=O)[O-])cc1.[Na+]` [7a] came in with a CC50 in [1] greater than 400 µM.

In series [2], `CCCCCCCCCCCCOS(=O)(=O)[O-].[Na+]` [8a, reference compound] had a cmc of 9600 µM. Also, the “Reference cmc (25 °C)” value in series [3] was 8.0 × 10^−3 [72] M.

On to `O=C([O-])[C@H](O)[C@@H](O)[C@H](O)[C@H](O)CO.[Na+]` [9a], for which, in series [1], the CC50 is greater than 400 µM.

Take `CCN(CCO)CCCC(C)Nc1ccnc2cc(Cl)ccc12` (centres unmarked) [compound 1, hydroxychloroquine sulfate, reference compound]: the half-maximal effective concentration (EC50) in series [4] (setting [12]) is 21.7 µM; in [7] (setting [12]), 18.6 µM; in series [8] (setting [13]), 16.5 µM. For the same compound, the concentration for an effect of 90% (EC90) in series [4] (setting [12]) was 24.3 µM; in series [6], 23 µM; in [7] (setting [12]), 25.1 µM. Besides, it took 214 µM to reach half-maximal cytotoxicity in series [5] (CC50 at 72 h). Besides, the “inhibition of vRNA transcription” value in series [7] amounted to 34.0%. The “inhibition of CPE” value in [8] is given as “lower than 20%”. The “Log P” value in series [9] is −2.25.

As for `CCN(CCO)CCCC(C)Nc1ccnc2cc(Cl)ccc12.CS(=O)(=O)O.CS(=O)(=O)O` (centres unmarked) [compound 3, N^4-(7-chloroquinolin-4-yl)-N^1-ethyl-N^1-(2-hydroxyethyl)pentane-1,4-diaminium bis(methanesulfonate)], the EC50 was 21.8 µM in series [4] (Vero E6, 48 hpi); 17 µM in series [7] (Vero E6, 48 hpi); 8.1 µM and 8.14 µM in series [8] (setting [13]). Also, the EC90 is 24.4 µM in series [4] (Vero E6, 48 hpi); 23.4 µM in [7] (Vero E6, 48 hpi); greater than 25 µM in series [8] (setting [13]). This compound also displayed a 50% cytotoxic concentration (CC50) in [10] of 219 µM. Moreover, the “inhibition of vRNA transcription” value in series [7] is on record as 48.5%. Further, the solubility in series [11] worked out at 1800 mg/mL. Further, the “inhibition of CPE” value in series [8] is 70.5%. Also, in series [9], the “Log P” value is recorded as −0.22.

In the case of `CCCCC(CC)COC(=O)CC(C(=O)OCC(CC)CCCC)S(=O)(=O)O.CCCCC(CC)COC(=O)CC(C(=O)OCC(CC)CCCC)S(=O)(=O)O.CCN(CCO)CCCC(C)Nc1ccnc2cc(Cl)ccc12` (centres unmarked) [compound 5, N^4-(7-chloroquinolin-4-yl)-N^1-ethyl-N^1-(2-hydroxyethyl)pentane-1,4-diaminium bis(1,4-bis((2-ethylhexyl)oxy)-1,4-dioxobutane-2-sulfonate)], the cmc in [2] came to 1.79 µM. Moreover, the CC50 in series [10] is 69.8 µM. The “Water Solubility” value in series [11] is less than 0.5 mg/mL. In series [8], the “SI (CC50/EC50), CPE inhibition” value worked out at 7.8; the EC50 is 8.9 µM; the EC90 was determined as 20.9 µM. For the same compound, the “Log P” value in series [9] was 1.24.

On to `CC1(C)C2CC[C@@]1(CS(=O)(=O)O)C(=O)C2.CC1(C)C2CC[C@@]1(CS(=O)(=O)O)C(=O)C2.CCN(CCO)CCCC(C)Nc1ccnc2cc(Cl)ccc12` (centres unmarked) [compound 6], for which the “Water Solubility” value in [11] came to 2020 mg/mL. Also, the “Log P” value in series [9] is recorded as −1.16.

As for `CCN(CCO)CCC[C@H](C)Nc1ccnc2cc(Cl)ccc12` [compound 6], half-maximal cytotoxicity in series [10] (CC50) was put at 73.2 µM. For the same compound, in [8], the EC90 is greater than 25 µM.

In turn, `CCN(CCO)CCCC(C)Nc1ccnc2cc(Cl)ccc12.Cc1ccc(S(=O)(=O)O)cc1.Cc1ccc(S(=O)(=O)O)cc1` (centres unmarked) [compound 7, N^4-(7-chloroquinolin-4-yl)-N^1-ethyl-N^1-(2-hydroxyethyl)pentane-1,4-diaminium bis(4-methylbenzenesulfonate)] gave a CC50 in series [10] of 207 µM. The amount in solution in [11] (solubility) came to 1400 mg/mL. In [8] (setting [13]), the EC50 turned out to be 15 µM and the EC90 amounted to 21.1 µM. Moreover, the “Log P” value in series [9] is on record as −1.12.

For `CCCCCCCCCCCCS(=O)(=O)O.CCCCCCCCCCCCS(=O)(=O)O.CCN(CCO)CCCC(C)Nc1ccnc2cc(Cl)ccc12` (centres unmarked) [compound 8, N^4-(7-chloroquinolin-4-yl)-N^1-ethyl-N^1-(2-hydroxyethyl)pentane-1,4-diaminium bis(dodecane-1-sulfonate)], the cmc in series [2] was determined as 4.83 µM. The “Water Solubility” value in [11] is listed as less than 0.5 mg/mL. In addition, in [8], the EC50 was determined as 15.8 µM and the EC90 was found to be 23.8 µM. Moreover, the “Log P” value in series [9] came out at 1.01.

Take `CCN(CCO)CCCC(C)Nc1ccnc2cc(Cl)ccc12.O=C(O)[C@@H](O)[C@H](O)[C@@H](O)[C@@H](O)CO.O=C(O)[C@@H](O)[C@H](O)[C@@H](O)[C@@H](O)CO` [compound 9, N^4-(7-chloroquinolin-4-yl)-N^1-ethyl-N^1-(2-hydroxyethyl)pentane-1,4-diaminium bis((2S,3R,4S,5S)-2,3,4,5,6-pentahydroxyhexanoate)]: the EC50 in series [4] (Vero E6, 48 hpi) amounted to 16.9 µM; in series [7] (Vero E6, 48 hpi), 16.3 µM; in series [8] it was 8.5 µM. The EC90 in series [4] (Vero E6, 48 hpi) is 22.5 µM; in [7] (Vero E6, 48 hpi), 23.1 µM; in [8], greater than 25 µM. Moreover, in series [4] (at 16.7 μM, 48 hpi), the “inhibition of production of infectious progeny” value stood at 56.5%. This compound also yielded a CC50 in series [10] of 196 µM. In addition, the “inhibition of vRNA transcription” value in series [7] is listed as 55.8%. Also, in series [11], the “Water Solubility” value is recorded as 1230 mg/mL. In [9], the “Log P” value is −1.39.

For orientation: CC50 means the concentration giving 50% cytotoxicity. For orientation: EC50 means the concentration giving half of the maximal effect. The EC90 is the concentration at which the effect reaches the 90% level. One may read the Log P as a log measure of how a compound divides between an organic and an aqueous phase. A word on the solubility: it is the dissolved amount per volume that the medium holds. Low readings indicate little dissolved substance, high ones much dissolved substance.
